Data published in patent US12409151B2, “Transdermal device comprising NSAID or analgesic prodrug molecules” (Remedy Diagnostics LLC, priority 2019, dated 2025).
≈ marks a conversion by molar mass, not a printed value. Where “and” joins values, the source holds several entries; their conditions need not be identical. Equal values may be shown once. Read-outs that look alike come from different tables or passages of the source.

Tests used:
[1] = physchem; details: for solubility: organic solvent or mixture, thermodynamic from solid, solubility in F1
Method: This example illustrates the solubilities of APAP, IBU, Pro-APAP, and Pro-IBU in vehicle formulations F1 and F2.
Formulation F1 consisted of 50% Polyethylene Glycol (MW grade: 400) in 50% Ethanol. 50.2 mg of IBU was dissolved in 10.0 mL of F1, to produce a solution with a concentration of 5.02 mg/mL.

[2] = cited from earlier work
[3] = Skin permeation across excised human skin (Franz cell), UV-Vis of receptor media; format: in vitro ADME
Method: Skin Permeation Studies: Upon completion of the solubility and stability studies, the ability of the compound to permeate the skin in the selected solvent/vehicle was tested and the rate of permeation was measured to determine whether the compound permeated to an extent relevant for clinical use in a transdermal patch. Specifically, 4-acetoxyacetanilide was assessed for skin permeation across human skin over a 24 h time period.
Methods: For the skin permeation studies, a sample chamber containing 5 mL of 50% Polyethylene glycol 400 in ethanol was used as the receptor media. An initial sample of receptor media was drawn at the onset of testing to test for interferents and subsequent samples of 1 mL each were taken at the following time-points: 0.5 h, 1 h, 2 h, 5 h, 8 h, and 24 h. These samples were analyzed via UV-Vis spectroscopy (Tecan m200 Infinity Multi-Well Plate Reader) for absorbance at 246 nm and were blanked relative to that of the empty vehicle.
Materials: 4-acetoxyacetanilide (Pro-APAP), Formulation Solvent: 50% DMSO in Polyethylene Glycol 400, and Receptor Media: 50% Ethanol in Polyethylene Glycol 400 at 37° C.
Skin permeation studies: Upon completion of the solubility and stability studies, the ability of the pro-IBU compound to permeate the skin in the selected solvent/vehicle was tested and the rate of permeation was measured to determine whether the compound will permeate to an extent relevant for clinical use in a transdermal patch. Specifically, ethyl 2-(4-isobutylphenyl)-propanoate was assessed for skin permeation across human skin over a 24 h time period.
Materials: ethyl 2-(4-isobutylphenyl)-propanoate (pro-IBU), Formulation Solvent: 50% DMSO in Polyethylene Glycol 400, Receptor Media: 50% Ethanol in Polyethylene Glycol 400 at 37° C.

[4] = Stability of prodrugs in vehicle F3, monitored visually; format: physicochemical
Method: This example evaluated the stability of each of the prodrugs in vehicle F3.
A 50 mg/ml solution of Pro-APAP in F3 was prepared and monitored visually for three months to check for stability. […] was determined to be stable in this solution for the duration of the experiment.
A 70 mg/ml solution of Pro-IBU in F3 was prepared and monitored visually for three months to check for stability. […] was determined to be stable in this solution for the duration of the experiment.

[5] = Solutions in permeation enhanced vehicle formulation F3; format: physicochemical; details: F3: 33.3% DMSO and 66.6% ethanol; dissolved in neat ethanol, then DMSO added
Method: A permeation enhanced vehicle formulation F3 was developed consisting of 33.3% dimethylsulfoxide (DMSO) and 66.6% ethanol. A solution of Pro-APAP in F3 was prepared by first dissolving 30.5 mg of Pro-APAP into 2 mL neat ethanol, and then slowly adding 1 mL DMSO to reach a 3 mL 10.1 mg/mL solution with a final DMSO concentration of 33.3%.
A solution of Pro-IBU in F3 was prepared by first dissolving 67.0 mg of Pro-IBU into 1 mL neat ethanol, and then slowly adding 0.50 mL DMSO to reach 1.5 mL of a 44.6 mg/mL solution with a final DMSO concentration of 33.3%.

[6] = 5 Hr, cumulative mass into receptor media, excised human skin, Franz cell 0.64 cm^2, 37° C.
[7] = 8 Hr, cumulative mass into receptor media, excised human skin, Franz cell 0.64 cm^2, 37° C.
[8] = 24 Hr, cumulative mass into receptor media, excised human skin, Franz cell 0.64 cm^2, 37° C.
[9] = 24 h, excised human skin, Franz cell, 37° C., 50% DMSO in PEG 400

## CC(=O)Nc1ccc(O)cc1 [APAP, acetaminophen, reference compound]
[1]
  solubility: 12.8 mg/mL (≈ 84.7 mM)

## CC(=O)Nc1ccc(OC(C)=O)cc1 [Pro-APAP, 4-acetoxyacetanilide]
[2]; in chloroform, DMSO, and methanol
  solubility: slightly soluble
[3]; [6]
  Maximum (mass released): 10.8 µg and 10.88 µg
  Minimum (mass released): 4.73 µg
[3]; 5 Hr, cumulative mass into receptor media, excised human skin, Franz cell 0.64 cm^2, 37° C., 50% DMSO in PEG 400
  Average Mass Released: 7.15 µg and 7.16 µg
[3]; [7]
  Maximum (mass released): 15.34 µg
  Minimum (mass released): 10.04 µg
[3]; 8 Hr, cumulative mass into receptor media, excised human skin, Franz cell 0.64 cm^2, 37° C., 50% DMSO in PEG 400
  Average Mass Released: 12.20 µg
[3]; [8]
  Maximum (mass released): 91.94 µg and 91.95 µg
  Minimum (mass released): 55.45 µg
[3]; 24 Hr, cumulative mass into receptor media, excised human skin, Franz cell 0.64 cm^2, 37° C., 50% DMSO in PEG 400
  Average Mass Released: 76.15 µg and 76.16 µg
[3]; [9]
  concentration of Pro-APAP in receptor media, maximum: 15.78 µg/mL
  concentration of Pro-APAP in receptor media, minimum: 8.76 µg/mL
[3]; 24 h, excised human skin, Franz cell, 37° C., formulation solvent 50% DMSO in PEG 400, receptor 50% ethanol in PEG 400, blank subtracted
  concentration of Pro-APAP in receptor media, average: 12.36 µg/mL
[3]; calculated, human skin, 24 h study, 50% DMSO in PEG 400
  permeability (permeation) coefficient range: 3.61-5.98 μg/h/cm^2
[3]; human skin over 24 h, 50% DMSO in PEG 400
  total cumulative amount permeated: around 80 μg per 0.66 cm^2
[1]
  solubility in F1: 12.5 mg/mL (≈ 64.7 mM)
[4]; 50 mg/ml solution in F3, monitored visually for three months
  stability in solution in F3: stable
[4]; 70 mg/ml solution of Pro-IBU in F3, monitored visually for three months
  stability in solution in F3: stable
[5]
  concentration of solution prepared in F3: 10.1 mg/mL

## CCOC(=O)C(C)c1ccc(CC(C)C)cc1 (stereo not drawn) [Pro-IBU, ethyl 2-(4-isobutylphenyl)-propanoate]
[2]; in DMSO and ethanol
  solubility: soluble
[3]
  permeability (permeation) coefficient range: 33.32-65.47 μg/h/cm^2
[3]; human
  lag time: 2 to 5 h
[3]; human, 5 h
  Average Mass Released: 18.06 µg
  Maximum (mass released): 54.17 µg
  Minimum (mass released): 0.00 µg
  mass detected in one of the wells: 54 µg
[3]; human, 8 h
  Average Mass Released: 25.50 µg
  Maximum (mass released): 70.83 µg
  Minimum (mass released): 0.00 µg
[3]; human, 24 h
  concentration of Pro-IBU in the receptor media: ~200 µg/mL
[1]
  solubility: ≥ 24.9 mg/mL
[5]
  concentration of solution prepared in F3: 44.6 mg/mL
